Assay results taken from US20240327415A1, “Multicomponent Complexes, Including Salts, Crystalline Forms, and Hydrates and Solvates of ENT1 Inhibitors” (iTeos Belgium SA, priority 2023, published 2024).

Legend:
Format in all cases: physicochemical
[1] = pH solubility studies in buffers and biorelevant media (Example 16); settings: for ML purity / Solub.: 24 h; for solubility: 24 hours
Method: (§1) Example 16—pH Solubility Studies—(1) Crystalline Form 2 Compound 1 di(hydrogen sulfate) trihydrate, (2) Crystalline Form 3 Compound 1 di(hydrogen sulfate), and (3) Crystalline Form 4 Compound 1 mono(hydrogen sulfate): pH solubility studies were carried out on the prepared crystalline Form 2 Compound 1 di(hydrogen sulfate) trihydrate, crystalline Form 3 Compound 1 di(hydrogen sulfate) and crystalline Form 4 Compound 1 mono(hydrogen sulfate) in the following media: (1) HCl/KCl, pH 1.2; (2) Acetate, pH 4.5; (3) Phosphate, pH 6.8; (4) FaSSIF; (5) FeSSIF; and (6) FaSSGF. Slurries of the hydrogen sulfate forms were prepared in the appropriate medium and stirred at 25° C. For the experiments in the buffer media, the pH of the slurry samples was measured and adjusted as required after 1 hour and 23 hours of the slurrying. Additional solid was added where dissolution was observed post-adjustment. The pH of the samples in the biorelevant media was measured at the 23 hour timepoint. No pH adjustment was made for the biorelevant media. After a total of 24 hours of slurrying, the mother liquors were extracted via centrifugation, and the concentrations and solution purity were determined by HPLC. The residual solids were isolated and analyzed by XRPD and are shown in FIG. 77, FIG. 78, and FIG. 79. The assessment was repeated for some of the samples, where required.

[2] = TG/DSC and DSC thermal analysis
Method: (§2) In the examples below, to measure TGA/DSC, 2-10 mg of material was added into a pre-tared open aluminum pan and loaded into a TA Instruments Discovery SDT 650 Auto—Simultaneous DSC and held at room temperature. The sample was then heated at a rate of 10° C./min from 30° C. to 400° C. during which time the change in sample weight was recorded along with the heat flow response (DSC). Nitrogen was used as the sample purge gas, at a flow rate of 200 cm^3/min.
(§3) METHOD A: In Example 3, 1-5 mg of material was weighed into an aluminum DSC pan and sealed non-hermetically with a pierced aluminum lid. The sample pan was then loaded into a TA DSC2500 and held at 20° C. Once a stable heat-flow response was obtained, the sample and reference were heated to an upper temperature of 200° C. at a scan rate of 10° C./min and the resulting heat flow response monitored. The sample was held at the upper temperature for 3 minutes, before it was cooled at 10° C./min to 20° C., reheated to the upper temperature at 10° C./min, and then cooled again to 20° C. at the same rate. Nitrogen was used as the purge gas, at a flow rate of 50 cm^3/min.
as §3, with “B:” for “A:”, “Examples 2A, 14, and 17,” for “Example 3,”, “−80° C. and then” for “20° C.,”, “C./min.” for “C./min, and then cooled again to 20° C. at the same rate.”
METHOD C: In Example 5, 1-5 mg of a sample were weighed into an aluminum DSC pan and sealed non-hermetically with an aluminum lid. The sample pan was then loaded into a TA Instruments Discovery DSC 2500 differential scanning calorimeter equipped with a RC90 cooler. The sample and reference were heated to 190° C. at a scan rate of 10° C./min and the resulting heat flow response monitored. The sample was re-cooled to −80° C. and then reheated again to 190° C. all at 10° C./min. Nitrogen was used as the purge gas, at a flow rate of 50 cm^3/min.
as §2, with “2-10” for “In the examples below, to measure TGA/DSC, 2-10”, “Auto-Simultaneous” for “Auto—Simultaneous”
as §3, with “1-5” for “METHOD A: In Example 3, 1-5”, “min,” for “minutes,”

[3] = Karl Fischer coulometric titration (water content)
Method: In the examples below, KF titration measured using either an In Motion KF Autosampler or Direct Addition Method. The In Motion KF Autosampler was carried out via the following procedure. 15-20 mg of solid was weighed into a 10 mL glass vial and tightly sealed with a screw cap. Samples were analyzed using a Mettler Toledo C30SX and an InMotion KFOven Autosampler at 130° C. Samples were analyzed in duplicate and an average moisture content reported. See table below for further details.
The Direct Addition Method was carried out via the following procedure. 15-20 mg of solid material was accurately weighed into a vial. The solid was then manually introduced into the titration cell of a Mettler Toledo C30 Compact Titrator. The vial was back-weighed after the addition of the solid and the weight of the added solid entered on the instrument. Titration was initiated once the sample had fully dissolved in the cell. The water content was calculated automatically by the instrument as a percentage and the data printed.

[4] = pH solubility studies in buffers and biorelevant media (Example 16); design: key: A: amorphous; Crystalline Form 10 mono(hydrogen sulfate); settings: pH 6.8 (Phosphate), 24 h
Method: as §1

[5] = FaSSGF, 25° C., pH after 24 h 0.87
[6] = FaSSIF, 25° C., pH after 24 h 1.10
[7] = FeSSIF, 25° C., pH after 24 h 1.01, Cloudy
[8] = pH 1.2 (HCl/KCl), attempt 1, 25° C., pH after 24 h 1.13
[9] = pH 4.5 (Acetate), attempt 1, 25° C., pH after 24 h 4.76→4.58
[10] = pH 4.5 (Acetate), attempt 2, 25° C., pH after 24 h 4.88→4.56
[11] = pH 6.8 (Phosphate), attempt 1, 25° C., pH after 24 h 5.57→6.70
[12] = pH 6.8 (Phosphate), attempt 2, 25° C., pH after 24 h 1.57→6.71

## COc1cc(C(=O)O[C@@H]2CCCOc3cc(cc(OC)c3OC)C(=O)NCCCN3CCCN(CC2)CC3)cc(OC)c1OC.O=S(=O)(O)O.O=S(=O)(O)O [crystalline Form 3 Compound 1 di(hydrogen sulfate)]
[1]; [5]
  ML purity: 99.51 % area
  Solub.: 72.0 mg/mL
[1]; [6]
  ML purity: 99.76 % area
  Solub.: 77.1 mg/mL
[1]; [7]
  ML purity: 99.90 % area
  Solub.: ≥208.3 mg/mL
[1]; after 24 hours slurrying in the media (Form 2: all samples except pH 4.5 Attempt 1)
  solution purity of the extracted mother liquors: > 95 % area
[1]; all the media assessed, except the pH 4.5 media, 25° C.
  solubility: > 50 mg/mL
[1]; pH 1.2
  pH solubility: pH 1.2: 76 mg/mL
  pH solubility: residual solid: mg/mL, Form 2
[1]; [8]
  ML purity: 99.56 % area
  Solub.: 75.7 mg/mL
[1]; pH 4.5
  pH solubility: pH 4.5: 54 mg/mL
  pH solubility: residual solid: mg/mL, Form 4
[1]; [9]
  ML purity: 99.59 % area
  Solub.: 54.2 mg/mL
[1]; [10]
  ML purity: 95.53 % area
  Solub.: 20.0 mg/mL
[1]; pH 4.5 media, Attempt 2, 25° C.
  solubility: 20 mg/mL
[1]; pH 6.8
  pH solubility: pH 6.8: 150 mg/mL
  pH solubility: residual solid: mg/mL, Gum
[1]; [11]
  ML purity: 99.87 % area
  Solub.: 122.5 mg/mL
[1]; [12]
  ML purity: 99.16 % area
  Solub.: 152.8 mg/mL
[2]
  TGA/DSC mass loss: 3.1% mass loss
[2]; value before the brackets
  TGA/DSC thermal event, onset: 163 °C
[2]; value in brackets
  TGA/DSC thermal event, peak: 177 °C
[3]
  KF moisture content: 1.89% moisture
[4]; attempt 1, 25° C.
  XRPD of residual solids: A
[4]; attempt 2, 25° C.
  XRPD of residual solids: A
